Entries after “also recorded” stand apart in the source; their conditions may differ.
How the values were obtained:
[1] = models of muscular dystrophy; cited from earlier work
1205Lu melanoma cells [2] = conditions: mouse, in vivo; cited from earlier work
human melanoma cells = experiment: Hfg treatment of human melanoma cells; type: cell-based
From the text: (§1) TGFbeta derived from bone fuels melanoma bone metastasis by inducing tumor secretion of pro-metastatic factors that act on bone cells to change the skeletal microenvironment. […] Hfg is active orally and by intraperitoneal injection, and it has completed Phase I clinical trials in cancer patients. It suppresses the phosphorylation and activation of Smad2 and Smad3 by inducting of Smad7. Overexpression of inhibitory Smad7 has been associated with a reduction on invasive capacity in vitro and anchorage-independent growth, and delays subcutaneous tumor growth in nude mice. The present inventors have shown that Smad7 overexpression decreased melanoma bone metastasis, thus is useful for treating and/or preventing muscle weakness and atrophy as well as other muscle related side effects in cancer patients.

1205Lu melanoma cells [3] = experiment: melanoma bone metastasis in nude mice inoculated with 1205Lu melanoma cells; type: in vivo, mouse
From the text: Halofuginone (Hfg) is a synthetic derivative of the plant alkaloid febrifugine, a traditional Chinese herbal medicine. Hfg increases expression of Smad7, an intracellular inhibitor of TGF-beta signaling. […] Hfg has been widely used as a veterinary agent with an excellent safety profile.
as §1

RyR1 = RyR1 oxidation, nitrosylation and calstabin 1 depletion in EDL (immunoprecipitation/immunoblot); type: in vivo, mouse; conditions: mice with PC-3 prostate cancer metastatic to bone
From the text: (§2) In embodiment A is shown that body weight is decreased in nude mice inoculated with PC-3 human prostate cancer cells and that osteolytic lesions are present in the tibia and histology of the femur, as shown in X-ray images. In embodiments B and C are shown decreased skeletal muscle cross-sectional area in tumor-bearing mice determined by Micro-CT as described herein. In embodiments D and E are shown decreased body weight (D) and decreased Grip strength (E) in PC-3 tumor bearing mice. […] In embodiment J is shown that RyR1 is oxidized and there is decreased calstabin 1 in the RyR complex from, skeletal muscle (EDL) from mice with metastatic prostate cancer. […] All immunoblots were developed and quantified with the Odyssey system (LI-COR, Inc., Lincoln, Nebr.) using IR labeled anti-mouse and anti-Rabbit IgG (1:10,000 dilution) secondary antibodies. […] Quantification of immunoblots showing the relative nitrotyrosine/SERCA for each group of EDLs tested. *p<0.01 compared to non-cancer controls as analyzed by ANOVA. […]
Quantification of RyR1 skeletal channel nitrosylation, oxidation and phosphorylation by protein kinase A (PKA) are performed as described (Bellinger et al., 2009; Bellinger et al., 2008b).
Quantification of depletion of the channel stabilizing subunit calstabin 1 (FKBP12) from skeletal RyR1 by immunoprecipitation techniques are performed as described (Marx et al., 2000). […]

SERCA = SERCA oxidation in EDL muscle lysates (immunoprecipitation/immunoblot); type: in vivo, mouse; conditions: prostate cancer mice
From the text: In embodiment A is shown that body weight is decreased in nude mice inoculated with PC-3 human prostate cancer cells and that osteolytic lesions are present in the tibia and histology of the femur, as shown in X-ray images. In embodiments B and C are shown decreased skeletal muscle cross-sectional area in tumor-bearing mice determined by Micro-CT as described herein. In embodiments D and E are shown decreased body weight (D) and decreased Grip strength (E) in PC-3 tumor bearing mice. […] In embodiment J is shown that RyR1 is oxidized and there is decreased calstabin 1 in the RyR complex from, skeletal muscle (EDL) from mice with metastatic prostate cancer. RyR1 was immunoprecipitated from 250 μg of EDL homogenate using an anti-RyR antibody (4 μg 5029 Ab), and the immunoprecipitates were separated on SDS-PAGE gels (6% for RyR, 15% for Calstabin). All immunoblots were developed and quantified with the Odyssey system (LI-COR, Inc., Lincoln, Nebr.) using IR labeled anti-mouse and anti-Rabbit IgG (1:10,000 dilution) secondary antibodies. Immunoblots developed using anti-RyR (clone 34C, 1:5,000), anti-Cys-NO (1:1000, Sigma, St. Louis. MO), anti-DNP (to determine RyR1 oxidation. 1:250), and anticalstabin (1:2500). […] Quantification of immunoblots showing the relative nitrotyrosine/SERCA for each group of EDLs tested. *p<0.01 compared to non-cancer controls as analyzed by ANOVA. […]

mouse mammary carcinomas = conditions: cited from earlier work
[4] = test system: EDL muscle of mice with PC-3 prostate cancer bone metastases; experiment: EDL muscle specific force production in mice with PC-3 prostate cancer bone metastases; type: in vivo, mouse; conditions: hypogonadal mice with PC-3 prostate cancer metastatic to bone
From the text: as §2
Extensor digitorum longus (EDL) muscles are dissected from the hind limbs using micro dissection scissors and forceps. […] To quantify the specific force, the absolute force is normalized to the muscle cross-sectional area, calculated as the muscle weight divided by the length and a muscle density constant of […] as previously described (Yamada et al., 2009).

[5] = test system: LuCaP 23.1 human prostate cancer osteoblastic xenograft; experiment: LuCaP 23.1 osteoblastic prostate cancer xenograft in tibia of nude mice; type: in vivo, mouse
From the text: (§3) These experiments utilize two murine models of prostate cancer bone metastases induced by PC-3 (osteolytic and cachectic; FIGS. 4A-K) or LuCAP23.1 (osteoblastic and not cachectic; FIGS. 5A-B).
(§4) For all mouse experiments, N=15 for each group of mice for tumors inoculated in the left cardiac ventricle (PC-3) or intratibially (LuCAP23.1) based on power analysis detailed below. Male nude mice are housed in laminar flow isolated hoods with water supplemented with vitamin K and autoclaved mouse chow provided ad libitum. Cells are introduced into mice at 4 wks of age. Animals are anesthetized with ketamine/xylazine and positioned ventral side up.
Four-week old, male nude mice were inoculated into the tibia with LuCaP 23.1 human prostate cancer osteoblastic xenograft (n=14-15/group).

PC-3 bone metastases = experiment: PC-3 prostate cancer bone metastases in mice; type: in vivo, mouse; conditions: 50 mg/kg starting 2 days prior to inoculation
From the text: as §3, §4
Multiple modalities of bone imaging including X-ray and μCT are used to longitudinally monitor the bone lesions and confirmed by histology and quantitative histomorphometry as previously described (Dunn et al., 2009; Guise et al., 1996b; Yin et al., 1999). Muscle mass are followed serially in vivo using the Piximus II system (Wiren et al., 2011) and microCT (Manske et al., 2011).

[6] = patients with prostate cancer bone metastases; cited from earlier work
[7] = 50 or 150 mg/kg/day po from 12 weeks post tumor inoculation

Molecule: O=C(CC1NCCCC1O)Cn1cnc2cc(Br)c(Cl)cc2c1=O (stereo not shown) [Halofuginone]
- muscle function [1]: improve muscle function
- development and progression of bone metastasis caused by melanoma cells (1205Lu melanoma cells [2]): decreases development and progression of bone metastasis
- TGFbeta-induced SMAD-driven transcription (human melanoma cells): inhibited
- cell apoptosis (human melanoma cells): increased
- cell proliferation (human melanoma cells): inhibited
- expression of TGFbeta target genes (PTHrP, CTGF, CXCR4, IL11) (human melanoma cells): reducing expression
- phosphorylation of SMAD proteins in response to TGFbeta (human melanoma cells): inhibited
- osteolysis assessed by radiography (1205Lu melanoma cells [3]; mice with established bone metastasis, vs placebo): significantly less osteolysis
- melanoma metastasis to the brain (1205Lu melanoma cells [3]; mouse, in vivo): reduce melanoma metastasis to the brain
- bone metastasis (1205Lu melanoma cells [3]; preventive protocol, nude mice inoculated with 1205Lu melanoma cells): inhibited bone metastasis

Molecule: Fc1ccc(Cl)cc1-c1nc(Nc2ccncc2)c2nccnc2n1 [SD-208]
- oxidation/nitrosylation/calstabin 1 depletion of skeletal muscle RyR1 (RyR1): prevented oxidation/nitrosylation/calstabin 1 depletion from RyR1; also recorded: prevented oxidation of RyR1
- oxidation of SERCA (SERCA): inhibited oxidation of SERCA
- tumor growth in vivo (mouse mammary carcinomas): inhibit
- muscle (EDL) specific force production [4]: improved muscle specific force production
- bone formation [5, 7]: does not increase
- tumor growth [5, 7]: does not increase
- LuCAP23.1 bone metastases ([5]; mouse, in vivo): not effective
- PC-3 bone metastases (X-ray, osteolytic lesion area, survival) (PC-3 bone metastases): highly effective; also recorded: prevents PC-3 bone metastases

Molecule: denosumab: inhibitor of bone resorption
- skeletal morbidity [6]: reduce skeletal morbidity

From patent US20140127228A1 (INDIANA UNIVERSITY SCHOOL OF MEDICINE, priority 2012, published 2014)
